Experimental findings from US7875647B2, “Heteroaryl-pyrazole derivatives as cannabinoid CB1 receptor antagonists” (Green Cross Corporation, priority 2006, dated 2011) are described below.

Where two headings read alike, the source gives them in different places.

The assay deals with T1, Cannabinoid-1 receptor (CB1R) (Rattus norvegicus, UniProt P20272).
T1 construct: The tissue obtained from the brain of SD rats was homogenized; from tissue; host or cells: brain of SD rats (membrane pellet of the homogenate)
T1 sequence (P20272 whole entry): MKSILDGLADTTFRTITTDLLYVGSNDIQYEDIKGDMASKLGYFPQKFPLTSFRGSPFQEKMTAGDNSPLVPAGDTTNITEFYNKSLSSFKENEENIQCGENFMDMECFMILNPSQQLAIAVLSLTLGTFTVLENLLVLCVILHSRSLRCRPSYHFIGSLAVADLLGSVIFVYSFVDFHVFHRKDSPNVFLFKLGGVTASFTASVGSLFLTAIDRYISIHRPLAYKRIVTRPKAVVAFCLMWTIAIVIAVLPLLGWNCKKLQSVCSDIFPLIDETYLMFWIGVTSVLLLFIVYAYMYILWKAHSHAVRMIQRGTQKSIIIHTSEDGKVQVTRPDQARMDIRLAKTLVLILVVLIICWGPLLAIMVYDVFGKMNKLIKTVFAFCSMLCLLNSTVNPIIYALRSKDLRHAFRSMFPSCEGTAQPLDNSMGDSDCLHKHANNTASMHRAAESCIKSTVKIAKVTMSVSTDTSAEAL
The assay is described as follows: Cannabinoid-1 receptor (CB1R) binding affinity assay ([3H]CP-55940, rat CB-1 receptor binding protocol). The following applies: brain tissue of SD rats, [3H]CP-55940, 30° C. 60 min.

Broadly, the IC50 is the concentration needed to halve the response being measured. For the setting “IC50(nM)”, `CCCC(C)c1nnc(-c2nn(-c3ccc(Cl)cc3Cl)c(-c3ccc(Cl)cc3)c2CC)s1` (stereo not shown) [Example 412, 2-(5-(4-chlorophenyl)-1-(2,4-dichlorophenyl)-4-ethyl-1H-pyrazol-3-yl)-5-(pentan-2-yl)-1,3,4-thiadiazole] returned an IC50 of 11 nM.
For the compound `CC(C)(C)c1nnc(-c2nn(-c3ccc(Cl)cc3Cl)c(-c3ccc(Cl)cc3)c2C(C)(C)O)o1` [Example 217, 2-(3-(5-tert-butyl-1,3,4-oxadiazol-2-yl)-5-(4-chlorophenyl)-1-(2,4-dichlorophenyl)-1H-pyrazol-4-yl)propan-2-ol], the IC50 (read-out: IC50) was determined as 22.6 nM.
The same measure, in the same setting: the result for `CCC(C)(C)c1nnc(-c2nn(-c3ccc(Cl)cc3Cl)c(-c3ccc(Cl)cc3)c2Cl)s1` [Example 537, 2-(4-chloro-5-(4-chlorophenyl)-1-(2,4-dichlorophenyl)-1H-pyrazol-3-yl)-5-tert-pentyl-1,3,4-thiadiazole] reads 127 nM.
For `COC(=O)NC(C)c1c(-c2nnc(C(C)(C)C)s2)nn(-c2ccc(Cl)cc2Cl)c1-c1ccc(Br)cc1` (stereo not shown) [Example 532, Methyl 1-(5-(4-bromophenyl)-3-(5-tert-butyl-1,3,4-thiadiazol-2-yl)-1-(2,4-dichlorophenyl)-1H-pyrazol-4-yl)ethylcarbamate], the IC50 (IC50(nM)) is 8.75 nM.
For the compound `CCC(C)(C)c1nnc(-c2nn(-c3ccc(Cl)cc3Cl)c(-c3ccc(Cl)cc3)c2Br)s1` [Example 545, 2-(4-bromo-5-(4-chlorophenyl)-1-(2,4-dichlorophenyl)-1H-pyrazol-3-yl)-5-tert-pentyl-1,3,4-thiadiazole], the IC50 (read-out: IC50) stood at 23.3 nM.
For the setting “IC50(nM)”, `CC(C)(C)c1nnc(-c2nn(-c3ccc(Cl)cc3Cl)c(-c3ccc(Cl)cc3)c2C2CC2)s1` [Example 441, 2-tert-butyl-5-(5-(4-chlorophenyl)-4-cyclopropyl-1-(2,4-dichlorophenyl)-1H-pyrazol-3-yl)-1,3,4-thiadiazole] registered a half-inhibitory concentration (IC50) of 29.8 nM.
In the case of `COc1ccc(C2(c3nnc(-c4nn(-c5ccc(Cl)cc5Cl)c(-c5ccc(Cl)cc5)c4Cn4cncn4)s3)CC2)cc1` [Example 509, 2-(4-((1H-1,2,4-triazol-1-yl)methyl)-5-(4-chlorophenyl)-1-(2,4-dichlorophenyl)-1H-pyrazol-3-yl)-5-(1-(4-methoxyphenyl)cyclopropyl)-1,3,4-thiadiazole], under “read-out: IC50”, the IC50 was found to be 2.07 nM.
For the compound `CC#Cc1c(-c2nnc(C(C)(C)C)o2)nn(-c2ccc(Cl)cc2Cl)c1-c1ccc(Cl)cc1` [Example 261, 2-tert-butyl-5-(5-(4-chlorophenyl)-1-(2,4-dichlorophenyl)-4-(prop-1-ynyl)-1H-pyrazol-3-yl)-1,3,4-oxadiazole], for the setting “read-out: IC50”, the IC50 was 15.4 nM.
For `CC(C)(C)c1nnc(-c2nn(-c3ccc(Cl)cc3Cl)c(-c3ccc(Br)cc3)c2C(C)(C)O)o1` [Example 218, 2-(5-(4-bromophenyl)-3-(5-tert-butyl-1,3,4-oxadiazol-2-yl)-1-(2,4-dichlorophenyl)-1H-pyrazol-4-yl)propan-2-ol], the IC50 (read-out: IC50) turned out to be 17.1 nM.
Take `CC(C)c1c(-c2nnc(C3(C(F)(F)F)CC3)s2)nn(-c2ccc(Cl)cc2Cl)c1-c1ccc(Cl)cc1` [Example 498, 2-(5-(4-chlorophenyl)-1-(2,4-dichlorophenyl)-4-isopropyl-1H-pyrazol-3-yl)-5-(1-(trifluoromethyl)cyclopropyl)-1,3,4-thiadiazole]: the half-inhibitory concentration (IC50) (read-out: IC50) was found to be 11.4 nM.
The same measure, in the same setting: for `CCc1c(-c2nnc(C3(c4ccccc4)CC3)o2)nn(-c2ccc(Cl)cc2Cl)c1-c1ccc(Cl)cc1` [Example 150, 2-(5-(4-chlorophenyl)-1-(2,4-dichlorophenyl)-4-ethyl-1H-pyrazol-3-yl)-5-(1-phenylcyclopropyl)-1,3,4-oxadiazole] the value was 6.05 nM; for `CCCC(C)c1nnc(-c2nn(-c3ccc(Cl)cc3Cl)c(-c3ccc(Br)cc3)c2C)s1` (stereo not shown) [Example 413, 2-(5-(4-bromophenyl)-1-(2,4-dichlorophenyl)-4-methyl-1H-pyrazol-3-yl)-5-(pentan-2-yl)-1,3,4-thiadiazole], 14.6 nM.
Still for that read-out and setting: the result for `Clc1ccc(-c2c(Br)c(-c3nnc(C4CCCCC4)s3)nn2-c2ccc(Cl)cc2Cl)cc1` [Example 544, 2-(4-bromo-5-(4-chlorophenyl)-1-(2,4-dichlorophenyl)-1H-pyrazol-3-yl)-5-cyclohexyl-1,3,4-thiadiazole] reads 91.2 nM; that for `Cc1c(-c2nnc(C(C)C3CCCC3)o2)nn(-c2ccc(Cl)cc2Cl)c1-c1ccc(Cl)cc1` (stereo not shown) [Example 61, 2-(5-(4-chlorophenyl)-1-(2,4-dichlorophenyl)-4-methyl-1H-pyrazol-3-yl)-5-(1-cyclopentylethyl)-1,3,4-oxadiazole], 22.2 nM; that for `CCOC(C)(C)c1nnc(-c2nn(-c3ccc(Cl)cc3Cl)c(-c3ccc(Cl)cc3)c2C)s1` [Example 437, 2-(5-(4-chlorophenyl)-1-(2,4-dichlorophenyl)-4-methyl-1H-pyrazol-3-yl)-5-(2-ethoxypropan-2-yl)-1,3,4-thiadiazole], 53.6 nM.
For the compound `Clc1ccc(-c2c(Cn3cncn3)c(-c3nnc(C4(c5ccccc5)CCCC4)s3)nn2-c2ccc(Cl)cc2Cl)cc1` [Example 514, 2-(4-((1H-1,2,4-triazol-1-yl)methyl)-5-(4-chlorophenyl)-1-(2,4-dichlorophenyl)-1H-pyrazol-3-yl)-5-(1-phenylcyclopentyl)-1,3,4-thiadiazole], the 50% inhibitory concentration (IC50) (read-out: IC50) was determined as 2.88 nM.
Same read-out and setting: for `COC(=O)NCc1c(-c2nnc(C(C)(C)C)o2)nn(-c2ccc(Cl)cc2Cl)c1-c1ccc(Cl)cc1` [Example 232, Methyl (3-(5-tert-butyl-1,3,4-oxadiazol-2-yl)-5-(4-chlorophenyl)-1-(2,4-dichlorophenyl)-1H-pyrazol-4-yl)methylcarbamate] the value was 15.6 nM.
The same measure, in the same setting: for `CCC(C)c1nnc(-c2nn(-c3ccc(Cl)cc3Cl)c(-c3ccc(Cl)cc3)c2Cl)o1` (stereo not shown) [Example 336, 2-sec-butyl-5-(4-chloro-5-(4-chlorophenyl)-1-(2,4-dichlorophenyl)-1H-pyrazol-3-yl)-1,3,4-oxadiazole] the value was 207 nM; for `Cc1c(-c2nnc(C3(Cc4ccc(Cl)cc4)CC3)s2)nn(-c2ccc(Cl)cc2Cl)c1-c1ccc(Cl)cc1` [Example 471, 2-(1-(4-chlorobenzyl)cyclopropyl)-5-(5-(4-chlorophenyl)-1-(2,4-dichlorophenyl)-4-methyl-1H-pyrazol-3-yl)-1,3,4-thiadiazole], 27.2 nM.
As for `Cc1c(-c2nnc(C(C)(C)c3ccccc3)s2)nn(-c2ccc(Cl)cc2Cl)c1-c1ccc(Cl)cc1` [Example 401, 2-(5-(4-chlorophenyl)-1-(2,4-dichlorophenyl)-4-methyl-1H-pyrazol-3-yl)-5-(2-phenylpropan-2-yl)-1,3,4-thiadiazole], the IC50 (read-out: IC50) was found to be 6.9 nM.
As for `CCc1c(-c2nnc(C3(c4ccc(Cl)cc4)CC3)s2)nn(-c2ccc(Cl)cc2Cl)c1-c1ccc(Br)cc1` [Example 432, 2-(5-(4-bromophenyl)-1-(2,4-dichlorophenyl)-4-ethyl-1H-pyrazol-3-yl)-5-(1-(4-chlorophenyl)cyclopropyl)-1,3,4-thiadiazole], where the note is “read-out: IC50”, the IC50 is 7.98 nM.
Same read-out and setting: the result for `Cc1c(-c2nnc(C(C)(C)OCc3ccccc3)o2)nn(-c2ccc(Cl)cc2Cl)c1-c1ccc(Cl)cc1` [Example 245, 2-(2-(benzyloxy)propan-2-yl)-5-(5-(4-chlorophenyl)-1-(2,4-dichlorophenyl)-4-methyl-1H-pyrazol-3-yl)-1,3,4-oxadiazole] reads 9.41 nM.
